Data reported in US6380181B1, “Synthetic catechol derivatives, method for production and use thereof” (priority 1996, dated 2002).
≈ marks a conversion by molar mass, not a printed value. Like-named read-outs stand apart in the source and are kept apart here.

Assays:
Assay type in all cases: cell-based
[1] = test system: Pseudomonas aeruginosa SG 137 (carbenicillin-resistant); assay: Agar diffusion test; conditions: concentration 100 μg/ml, P. aeruginosa SG 137
[2] = test system: Pseudomonas aeruginosa KW 799 WT (wild type); assay: Agar diffusion test; conditions: concentration 100 μg/ml, P. aeruginosa KW799/WT
[3] = test system: Pseudomonas aeruginosa KW 799/61 (penetration mutant); conditions: concentration 100 μg/ml; P. aeruginosa KW799/61
[4] = test system: E. coli DC2 (penetration mutant); conditions: concentration 100 μg/ml
E. coli DC0 (wild type) = assay: Agar diffusion test; conditions: concentration 100 μg/ml
[5] = test system: Stenotrophomonas maltophilia GN 12873; assay: Agar diffusion test; conditions: concentration 100 μg/ml
[6] = test system: Salmonella gallinarum ATCC 9184; conditions: concentration 100 μg/ml, Salmonella galinarum ATCC 9184
E. coli ATCC 25922 = assay: Microdilution test (MIC)
Method: (§1) The minimum inhibiting concentrations (MICs) were determined for the following bacterial strains: Pseudomonas aeruginosa NCTC 10701, NCTC 10662, SG 137, ATCC 27853, KW 799 WT and KW 799/61, E. coli DCO, DC2 and ATCC 25922, Serratia marcescens SG 621; Salmonella gallinarum ATCC 9184, Klebsiella pneumoniae ATCC 10031 and SG 117.

[7] = test system: Klebsiella pneumoniae ATCC 10031; assay: Microdilution test (MIC)
Method: as §1

[8] = test system: Pseudomonas aeruginosa NCTC 10662; assay: Microdilution test (MIC); conditions: P. aeruginosa NCTC 10662
Method: as §1

[9] = test system: Pseudomonas aeruginosa SG 137; assay: Microdilution test (MIC); conditions: P. aeruginosa SG 137
Method: as §1

[10] = test system: Serratia marcescens SG 621; assay: Microdilution test (MIC)
Method: as §1

E. coli DC0 = assay: Microdilution test (MIC); conditions: E. coli DC0
Method: as §1
(§2) With the test germs KW 799/WT and /61 of Pseudomonas and DCO and DC2 of E. coli, the effect of improved penetration capacity on the efficacy of the substances was investigated.

[11] = test system: Pseudomonas aeruginosa KW 799 WT; assay: Microdilution test (MIC); conditions: P. aeruginosa KW 799/WT
Method: as §1, §2

[12] = test system: Pseudomonas aeruginosa KW 799/61; assay: Microdilution test (MIC)
Method: as §1, §2

E. coli DC2 = assay: microbe, parasite or virus in culture
Method: as §1, §2

[13] = test system: Stenotrophomonas maltophilia GN 12873; assay: Microdilution test (MIC)
[14] = test system: Pseudomonas aeruginosa ATCC 27853 (wild type); assay: Agar diffusion test; conditions: concentration 100 μg/ml; P. aeruginosa ATCC 27853
[15] = test system: Klebsiella pneumoniae ATCC 10031; assay: Agar diffusion test; conditions: concentration 100 μg/ml
[16] = test system: Klebsiella pneumoniae SG 117; assay: Agar diffusion test; conditions: concentration 100 μg/ml
[17] = test system: Pseudomonas aeruginosa ATCC 27853; assay: Microdilution test (MIC); conditions: P. aeruginosa ATCC 27853
Method: as §1

[18] = test system: Pseudomonas aeruginosa ATCC 9027 (wild type); assay: Agar diffusion test; conditions: concentration 100 μg/ml; P. aeruginosa ATCC 9027
[19] = test system: Pseudomonas aeruginosa NCTC 10701; assay: Agar diffusion test; conditions: concentration 100 μg/ml; P. aeruginosa NCTC 10701
[20] = test system: Pseudomonas aeruginosa NPS1 (plasmid-coded β-lactamase); conditions: concentration 100 μg/ml; P. aeruginosa NPS 1
[21] = test system: Pseudomonas aeruginosa Oxa6 (plasmid-coded β-lactamase); conditions: concentration 100 μg/ml; P. aeruginosa OXA 6
[22] = test system: Stenotrophomonas maltophilia IMET 10402; assay: Agar diffusion test; conditions: concentration 100 μg/ml
E. coli mutant KB4 ompF− = test system: E. coli mutant KB4 ompF−
Source text: (§3) The efficacy against β-lactamase formers and against multi-resistant germs is therefore due to a new type of mechanism for overcoming the penetration resistance, by means of which the ratio of active ingredient to enzyme in the bacterial cell is influenced so that not all antibiotic molecules are inactivated before they reach their target.

E. coli mutant KB5 ompC− = test system: E. coli mutant KB5 ompC−
Source text: as §3

[23] = test system: E. coli mutant PLB3268 ompF++; conditions: E. coli mutant PLB3268 ompF++ (ompF super-expressed)
Source text: as §3
PLB268: ompF- was super-expressed.

[24] = test system: E. coli mutant BR185 tonB−
E. coli AB2847 tonB+ = test system: E. coli AB2847 tonB+
[25] = test system: Pseudomonas aeruginosa NCTC 10662; assay: Agar diffusion test; conditions: concentration 100 μg/ml; P. aeruginosa NCTC 10662
[26] = test system: Pseudomonas aeruginosa NCTC 10701; assay: Microdilution test (MIC); conditions: Pseudomonas aeruginosa, NCTC10701; P. aeruginosa NCTC 10701
Method: as §1

[27] = test system: Salmonella gallinarum ATCC 9184; assay: microbe, parasite or virus in culture; conditions: Salmonella enterica; Salmonella gallinarum ATCC9184; read-out: MIC values, microdilution test
Method: as §1

[28] = Escherichia coli, read-out: MIC values, microdilution test

## CC(=O)Oc1cccc(C(=O)NCCCC[C@H](NC(=O)c2cccc(OC(C)=O)c2OC(C)=O)C(=O)N[C@@H](C(=O)N[C@@H]2C(=O)N3[C@@H]2SC(C)(C)[C@@H]3C(=O)O)c2ccccc2)c1OC(C)=O [Substance 31, N-[L-2,6-bis-(2,3-diacetoxybenzoylamino)-hexanoyl]-ampicillin]
[1]; listed as 31
  inhibition spot diameter in the agar diffusion test: 28 mm
[2]; listed as 31
  inhibition spot diameter in the agar diffusion test: 27 mm
[3]
  inhibition spot diameter in the agar diffusion test: 37 mm
[4]; listed as 31
  inhibition spot diameter in the agar diffusion test: 33 mm
E. coli DC0 (wild type); listed as 31
  inhibition spot diameter in the agar diffusion test: 27 mm
[5]; listed as 31
  inhibition spot diameter in the agar diffusion test: 23 mm
[6]; listed as 31
  inhibition spot diameter in the agar diffusion test: 29 mm
E. coli ATCC 25922; listed as 31
  MIC values, microdilution test: 0.78 µg/mL (≈ 0.85 µM)
[7]
  MIC values, microdilution test: 0.4 µg/mL (≈ 0.436 µM)
[8]; listed as 31
  MIC values, microdilution test: 6.25 µg/mL (≈ 6.81 µM)
[9]
  MIC values, microdilution test: 0.1 µg/mL (≈ 0.109 µM)
[10]
  MIC values, microdilution test: 25 µg/mL (≈ 27.2 µM)
E. coli DC0
  MIC values, microdilution test: 12.5 µg/mL (≈ 13.6 µM)
[11]
  MIC values, microdilution test: 0.78 µg/mL (≈ 0.85 µM)
[12]
  MIC values, microdilution test: 0.2 µg/mL (≈ 0.218 µM)
E. coli DC2
  MIC values, microdilution test: 0.2 µg/mL (≈ 0.218 µM)
[13]; listed as 31
  MIC values, microdilution test: 0.4 µg/mL (≈ 0.436 µM)

## COC(=O)Oc1cccc(C(=O)N(C)c2ccc(C(=O)N[C@@H](C(=O)N[C@@H]3C(=O)N4[C@@H]3SC(C)(C)[C@@H]4C(=O)O)c3ccccc3)cc2)c1OC(=O)OC [Substance Na-37, N-{4-[(2,3-di-methoxycarbonyloxy-benzoyl)-methyl-amino]-benzoyl}-ampicillin]
[1]
  inhibition spot diameter in the agar diffusion test: 22 mm
[2]
  inhibition spot diameter in the agar diffusion test: 28 mm
[3]
  inhibition spot diameter in the agar diffusion test: 35 mm
[14]
  inhibition spot diameter in the agar diffusion test: 21 mm
[4]
  inhibition spot diameter in the agar diffusion test: 33 mm
E. coli DC0 (wild type)
  inhibition spot diameter in the agar diffusion test: 27 mm
[15]
  inhibition spot diameter in the agar diffusion test: 22 mm
[16]
  inhibition spot diameter in the agar diffusion test: 19 mm
[5]
  inhibition spot diameter in the agar diffusion test: 16 mm
[6]
  inhibition spot diameter in the agar diffusion test: 29 mm
E. coli ATCC 25922
  MIC values, microdilution test: 3.12 µg/mL (≈ 4.25 µM)
[7]
  MIC values, microdilution test: 3.12 µg/mL (≈ 4.25 µM)
[17]
  MIC values, microdilution test: 3.12 µg/mL (≈ 4.25 µM)
[8]
  MIC values, microdilution test: 12.5 µg/mL (≈ 17 µM)
[9]
  MIC values, microdilution test: 0.4 µg/mL (≈ 0.544 µM)
[13]
  MIC values, microdilution test: 6.25 µg/mL (≈ 8.51 µM)

## CC(=O)OC[C@H](NC(=O)c1cccc(OC(C)=O)c1OC(C)=O)C(=O)N[C@@H](C(=O)N[C@@H]1C(=O)N2[C@@H]1SC(C)(C)[C@@H]2C(=O)O)c1ccccc1 [Substance 32, N-[L-3-Acetoxy-2-(2,3-diacetoxybenzoylamino)-propionyl]-ampicillin]
[1]
  inhibition spot diameter in the agar diffusion test: 16 mm
[2]
  inhibition spot diameter in the agar diffusion test: 25 mm
[3]
  inhibition spot diameter in the agar diffusion test: 32 mm
[4]
  inhibition spot diameter in the agar diffusion test: 28 mm
E. coli DC0 (wild type)
  inhibition spot diameter in the agar diffusion test: 22 mm
[5]
  inhibition spot diameter in the agar diffusion test: 19 mm
[6]
  inhibition spot diameter in the agar diffusion test: 28 mm
[9]
  MIC values, microdilution test: 1.56 µg/mL (≈ 2.23 µM)
[10]
  MIC values, microdilution test: 25 µg/mL (≈ 35.8 µM)
E. coli DC0
  MIC values, microdilution test: 12.5 µg/mL (≈ 17.9 µM)
[11]
  MIC values, microdilution test: 1.56 µg/mL (≈ 2.23 µM)
[12]
  MIC values, microdilution test: 0.4 µg/mL (≈ 0.572 µM)

## CC(=O)Oc1cccc(C(=O)Nc2ccc(C(=O)N[C@@H](C(=O)N[C@@H]3C(=O)N4[C@@H]3SC(C)(C)[C@@H]4C(=O)O)c3ccccc3)cc2)c1OC(C)=O [Substance 29]
[1]
  inhibition spot diameter in the agar diffusion test: 28 mm
[2]
  inhibition spot diameter in the agar diffusion test: 27 mm
[3]
  inhibition spot diameter in the agar diffusion test: 33 mm
[18]
  inhibition spot diameter in the agar diffusion test: 21 mm
[19]
  inhibition spot diameter in the agar diffusion test: 23 mm
[20]
  inhibition spot diameter in the agar diffusion test: 12 mm
[21]
  inhibition spot diameter in the agar diffusion test: 13 mm
[4]
  inhibition spot diameter in the agar diffusion test: 28 mm
E. coli DC0 (wild type)
  inhibition spot diameter in the agar diffusion test: 22 mm
[16]
  inhibition spot diameter in the agar diffusion test: 15 mm
[5]
  inhibition spot diameter in the agar diffusion test: 19 mm
[22]
  inhibition spot diameter in the agar diffusion test: 23 mm
[6]
  inhibition spot diameter in the agar diffusion test: 22 mm
E. coli ATCC 25922
  MIC values, microdilution test: 100 µg/mL (≈ 145 µM)
[7]
  MIC values, microdilution test: 50 µg/mL (≈ 72.6 µM)
[8]
  MIC values, microdilution test: 12.5 µg/mL (≈ 18.1 µM)
[9]
  MIC values, microdilution test: 0.78 µg/mL (≈ 1.13 µM)
[10]
  MIC values, microdilution test: 25 µg/mL (≈ 36.3 µM)
E. coli DC0
  MIC values, microdilution test: 50 µg/mL (≈ 72.6 µM)
[11]
  MIC values, microdilution test: 3.12 µg/mL (≈ 4.53 µM)
[12]
  MIC values, microdilution test: 0.4 µg/mL (≈ 0.581 µM)
E. coli DC2
  MIC values, microdilution test: 1.56 µg/mL (≈ 2.27 µM)
[13]
  MIC values, microdilution test: 12.5 µg/mL (≈ 18.1 µM)
E. coli mutant KB4 ompF−
  inhibition spot diameter in agar diffusion test: 9.5 mm
E. coli mutant KB5 ompC−
  inhibition spot diameter in agar diffusion test: 7 mm
[23]
  inhibition spot diameter in agar diffusion test: 14 mm
[24]
  inhibition spot diameter in agar diffusion test: 0 mm
E. coli AB2847 tonB+
  inhibition spot diameter in agar diffusion test: 6 mm

## CC1(C)S[C@@H]2[C@H](NC(=O)[C@H](N)c3ccccc3)C(=O)N2[C@H]1C(=O)O [Ampicillin, reference compound]
[1]
  inhibition spot diameter in the agar diffusion test: 0 mm
[2]
  inhibition spot diameter in the agar diffusion test: 0 mm
[3]
  inhibition spot diameter in the agar diffusion test: 41 mm
[14]
  inhibition spot diameter in the agar diffusion test: 0 mm
[18]
  inhibition spot diameter in the agar diffusion test: 0 mm
[25]
  inhibition spot diameter in the agar diffusion test: 0 mm
[19]
  inhibition spot diameter in the agar diffusion test: 0 mm
[20]
  inhibition spot diameter in the agar diffusion test: 0 mm
[21]
  inhibition spot diameter in the agar diffusion test: 0 mm
[4]
  inhibition spot diameter in the agar diffusion test: 32 mm
E. coli DC0 (wild type)
  inhibition spot diameter in the agar diffusion test: 22 mm
[16]
  inhibition spot diameter in the agar diffusion test: 19 mm
[5]
  inhibition spot diameter in the agar diffusion test: 0 mm
[22]
  inhibition spot diameter in the agar diffusion test: 0 mm
[6]
  inhibition spot diameter in the agar diffusion test: 34 mm
E. coli ATCC 25922; Escherichia coli, ATCC25922
  MIC: 6.25 µg/mL (≈ 17.9 µM)
[7]; ATCC10031
  MIC: 50 µg/mL (≈ 143 µM)
[17]; Pseudomonas aeruginosa, ATCC27853
  MIC: > 100 µg/mL
[8]; Pseudomonas aeruginosa, NCTC10662
  MIC: > 100 µg/mL
[26]
  MIC: > 100 µg/mL
[9]; Pseudomonas aeruginosa, SG137
  MIC: > 100 µg/mL
[10]; SG621
  MIC: 25 µg/mL (≈ 71.5 µM)
E. coli DC0; [28]
  MIC: 6.25 µg/mL (≈ 17.9 µM)
[11]; Pseudomonas aeruginosa, KW799WT
  MIC: > 100 µg/mL
[12]; Pseudomonas aeruginosa, KW799/61, P. aeruginosa KW 799/61
  MIC: 0.4 µg/mL (≈ 1.14 µM)
E. coli DC2; [28]
  MIC: 1.56 µg/mL (≈ 4.46 µM)
[27]
  MIC: 0.2 µg/mL (≈ 0.572 µM)
[13]; GN12873
  MIC: > 100 µg/mL
E. coli mutant KB4 ompF−
  inhibition spot diameter in agar diffusion test: 10 mm
E. coli mutant KB5 ompC−
  inhibition spot diameter in agar diffusion test: 9.5 mm
[23]
  inhibition spot diameter in agar diffusion test: 17.5 mm
